Measurements: ChEMBL document CHEMBL1149854, “Glycosides from the bark of Adina polycephala” (2008)

assay: Antiinflammatory activity in rat polymorphonuclear leukocytes assessed as inhibition of platelet activating factor-induced release of beta-glucuronidase at 10 uM after 15 mins; assay type: functional; conditions: 0.25 h

SMILES	inhibition at 10 µM
COc1cc(O[C@@H]2O[C@H](COC(=O)c3ccc(O[C@@H]4O[C@H](COC(=O)c5cc(OC)c(O)c(OC)c5)[C@@H](O)[C@H](O)[C@H]4O)c(OC)c3)[C@@H](O)[C@H](O)[C@H]2O)ccc1O	25.2%
COC(=O)C1=CO[C@@H](O[C@@H]2O[C@H](CO[C@@H]3O[C@@H](C)[C@H](O)[C@@H](O)[C@H]3O)[C@@H](O)[C@H](O)[C@H]2O)[C@@H]2C(CO)=CC[C@H]12	44.8%
C[C@@H]1C(=O)O[C@H]2[C@H](O)[C@@]34[C@H]5C[C@@H](C(C)(C)C)[C@]36[C@@H](OC(=O)[C@@H]6O)O[C@@]4(C(=O)O5)[C@@]12O [GINKOLIDE B]	78.8%
COc1cc(O)ccc1O[C@@H]1O[C@H](COC(=O)c2ccc(O[C@@H]3O[C@H](COC(=O)c4cc(OC)c(O)c(OC)c4)[C@@H](O)[C@H](O)[C@H]3O)c(OC)c2)[C@@H](O)[C@H](O)[C@H]1O	43.6%
COc1cc(C(=O)O)ccc1O[C@@H]1O[C@H](COC(=O)c2ccc(O[C@@H]3O[C@H](COC(=O)c4cc(OC)c(O)c(OC)c4)[C@@H](O)[C@H](O)[C@H]3O)c(OC)c2)[C@@H](O)[C@H](O)[C@H]1O	60.2%
COc1cc(C(=O)OC[C@H]2O[C@@H](OC(=O)c3cc(OC)c(O)c(OC)c3)[C@H](O)[C@@H](O)[C@@H]2O)ccc1O[C@@H]1O[C@H](COC(=O)c2cc(OC)c(O)c(OC)c2)[C@@H](O)[C@H](O)[C@H]1O	6%
